Assay results as given in patent US20080269213A1, “8-Hydroxyquinoline compounds and methods thereof” (Wyeth, priority 2006, published 2008).
“And” between values parts separate entries of the source, which are not always exact repeats. Equal entries are not always repeated. Where two headings read alike, the source gives them in different places.

Biological target: T1, recombinant human Aggrecanase-2 Agg2-Phe628 (Homo sapiens, UniProt Q9UNA0)
T1 sequence (Q9UNA0 262-628 limits assumed): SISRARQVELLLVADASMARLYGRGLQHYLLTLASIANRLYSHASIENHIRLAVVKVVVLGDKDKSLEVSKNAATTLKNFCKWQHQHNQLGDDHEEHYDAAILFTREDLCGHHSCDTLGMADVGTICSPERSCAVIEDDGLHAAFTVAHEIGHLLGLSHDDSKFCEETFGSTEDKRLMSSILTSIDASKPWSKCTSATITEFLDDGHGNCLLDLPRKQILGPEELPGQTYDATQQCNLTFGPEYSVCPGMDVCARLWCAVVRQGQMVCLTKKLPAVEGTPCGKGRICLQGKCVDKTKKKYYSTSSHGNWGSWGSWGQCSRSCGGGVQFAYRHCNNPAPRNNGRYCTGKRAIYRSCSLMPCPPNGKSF
Test: Aggrecanase 2 in vitro enzyme assay (Agg-2 FRET, quenched fluorescent peptide substrate)
Assay type: biochemical
Parameters: purified recombinant human Aggrecanase-2 Agg2-Phe628 (MW=41,737); This is a truncated form of full-length human aggrecanase-2; made in house; host or cells: CHO cells
Details: for Agg-2 FRET Median PCT INHIB: concentration not given
Procedure: A continuous assay was used in which the substrate was a synthetic peptide containing a fluorescent group (o-aminobenzyl, Abz), which was quenched by energy transfer to a 2,4-dinitrophenyl group (Dnp). The buffer used in this assay was 50 mM HEPES, pH 7.5, 100 mM NaCl, 5 mM CaCl2, 0.1% CHAPS, 5% glycerol. The source of enzyme was purified recombinant human Aggrecanase-2 Agg2-Phe628 (MW=41,737). This is a truncated form of full-length human aggrecanase-2 that was expressed in CHO cells and purified. The final concentration of Agg2-Phe628 was 0.5 μg/ml. […] It is a synthetic peptide that is designed after a portion of brevican, one of the naturally occurring substrates of Aggrecanase-2, of the sequence Abz-[…]-Dap(Dnp)-KK—NH2 (mass=1740). The concentration of this substrate stock was spectrophotometrically determined using the extinction coefficient at 354 nm of 18,172 M^−1cm^−1. […] The final concentration of substrate in the assay was 25 μM.
Test compounds (in duplicate) were serially diluted from 2 mM to 0.01 μM in 100% DMSO. The total reaction volume was 100 μl. The buffer and enzyme were added first followed by addition of 10× inhibitor from the dilution plate. Enzyme and buffer alone samples were included in order to obtain the maximal rate of substrate cleavage. […] Then substrate was added, mixed and the reaction monitored for 40 min at 30° C. in kinetic mode using λex: 340 nm and % λem: 420 (GeminiXS Molecular Devices).

[1] = read-out: Agg-2 FRET Median IC50

Row | IC50 [1] | Structure (SMILES) | further results
1 | 1020 nM | O=C(COc1ccc(Cl)cc1)NC(c1ccccc1)c1cc(Cl)c2cccnc2c1O (centres unmarked) [N-[(5-chloro-8-hydroxyquinolin-7-yl)(phenyl)methyl]-2-(4-chlorophenoxy)acetamide] | 
2 | 1380 nM | COc1ccc(OCC(=O)NC(c2ccccc2)c2cc(Cl)c3cccnc3c2O)cc1 (centres unmarked) [N-[(5-chloro-8-hydroxyquinolin-7-yl)(phenyl)methyl]-2-(4-methoxyphenoxy)acetamide] | 
3 | 19700 nM | CC(=O)NC(c1ccccc1)c1cc(Cl)c2cccnc2c1O (centres unmarked) [N-[(5-chloro-8-hydroxyquinolin-7-yl)(phenyl)methyl]acetamide] | 
4 | 1310 nM | O=C(NC(c1ccccc1)c1cc(Cl)c2cccnc2c1O)c1ccccc1 (centres unmarked) [N-[(5-chloro-8-hydroxyquinolin-7-yl)(phenyl)methyl]benzamide] | 
5 | 3510 nM | Cc1ccccc1C(NC(=O)COc1ccccc1)c1cc(C)c2cccnc2c1O (centres unmarked) [N-[(8-hydroxy-5-methylquinolin-7-yl)(2-methylphenyl)methyl]-2-phenoxyacetamide] | 
6 | 854 nM | Cc1ccccc1C(NC(=O)COc1ccccc1)c1cc([N+](=O)[O-])c2cccnc2c1O (centres unmarked) [N-[(8-hydroxy-5-nitroquinolin-7-yl)(2-methylphenyl)methyl]-2-phenoxyacetamide] | 
7 | 4510 nM | COc1ccc(OCC(=O)NC(c2ccc(OC)cc2)c2ccc3cccnc3c2O)cc1 (centres unmarked) [N-[(8-hydroxyquinolin-7-yl)(4-methoxyphenyl)methyl]-2-(4-methoxyphenoxy)acetamide] | 
8 | 2830 nM | COc1ccc(C(NC(=O)COc2ccc(C)cc2)c2ccc3cccnc3c2O)cc1 (centres unmarked) [N-[(8-hydroxyquinolin-7-yl)(4-methoxyphenyl)methyl]-2-(4-methylphenoxy)acetamide] | 
9 | 4410 nM | COc1ccc(C(NC(=O)COc2ccccc2)c2ccc3cccnc3c2O)cc1 (centres unmarked) [N-[(8-hydroxyquinolin-7-yl)(4-methoxyphenyl)methyl]-2-phenoxyacetamide] | 
10 | 3010 nM | Cc1ccc(C(NC(=O)COc2ccccc2)c2ccc3cccnc3c2O)cc1 (centres unmarked) [N-[(8-hydroxyquinolin-7-yl)(4-methylphenyl)methyl]-2-phenoxyacetamide] | 
11 | 2390 nM | O=C(COc1ccccc1)NC(c1ccc([N+](=O)[O-])cc1)c1ccc2cccnc2c1O (centres unmarked) [N-[(8-hydroxyquinolin-7-yl)(4-nitrophenyl)methyl]-2-phenoxyacetamide] | 
12 | 3340 nM | COc1ccc(OCC(=O)NC(c2ccccc2)c2ccc3cccnc3c2O)cc1 (centres unmarked) [N-[(8-hydroxyquinolin-7-yl)(phenyl)methyl]-2-(4-methoxyphenoxy)acetamide] | 
13 | 2470 nM | Cc1ccc(OCC(=O)NC(c2ccccc2)c2ccc3cccnc3c2O)cc1 (centres unmarked) [N-[(8-hydroxyquinolin-7-yl)(phenyl)methyl]-2-(4-methylphenoxy)acetamide] | 
14 | 908 nM | O=C(COc1ccc(Oc2ccccc2)cc1)NC(c1ccccc1)c1ccc2cccnc2c1O (centres unmarked) [N-[(8-hydroxyquinolin-7-yl)(phenyl)methyl]-2-(4-phenoxyphenoxy)acetamide] | 
15 | 4700 nM and 5470 nM | O=C(NC(c1ccccc1)c1ccc2cccnc2c1O)c1ccccc1 (centres unmarked) [N-[(8-hydroxyquinolin-7-yl)(phenyl)methyl]benzamide] | 

Continued, compound first:

Row | Structure (SMILES) | IC50 [1] | further results
16 | O=C(COc1ccccc1)NC(c1cc([N+](=O)[O-])ccc1Cl)c1cc(Cl)c2cccnc2c1O (centres unmarked) [N-[(5-chloro-8-hydroxyquinolin-7-yl)(2-chloro-5-nitrophenyl)methyl]-2-phenoxyacetamide] | 523 nM | 
17 | O=C(CCCc1ccccc1)NC(c1ccccc1Cl)c1cc(Cl)c2cccnc2c1O (centres unmarked) [N-[(5-chloro-8-hydroxyquinolin-7-yl)(2-chlorophenyl)methyl]-4-phenylbutanamide] |  | Agg-2 FRET Median PCT INHIB: 48%
18 | O=C(COc1ccccc1)NC(c1ccccc1O)c1cc(Cl)c2cccnc2c1O (centres unmarked) [N-[(5-chloro-8-hydroxyquinolin-7-yl)(2-hydroxyphenyl)methyl]-2-phenoxyacetamide] |  | inhibition at […] (@ 2500 nM): 62%
19 | Cc1ccccc1C(NC(=O)CCCc1ccccc1)c1cc(Cl)c2cccnc2c1O (centres unmarked) [N-[(5-chloro-8-hydroxyquinolin-7-yl)(2-methylphenyl)methyl]-4-phenylbutanamide] |  | Agg-2 FRET Median PCT INHIB: 49%
20 | O=C(COc1ccccc1)NC(c1cccs1)c1cc(Cl)c2cccnc2c1O (centres unmarked) [N-[(5-chloro-8-hydroxyquinolin-7-yl)(2-thienyl)methyl]-2-phenoxyacetamide] | 1220 nM | 
21 | O=C(COc1ccccc1)NC(c1ccc(Cl)c(Cl)c1)c1cc(Cl)c2cccnc2c1O (centres unmarked) [N-[(5-chloro-8-hydroxyquinolin-7-yl)(3,4-dichlorophenyl)methyl]-2-phenoxyacetamide] | 1360 nM | 
22 | COc1cc(OC)cc(C(NC(=O)COc2ccccc2)c2cc(Cl)c3cccnc3c2O)c1 (centres unmarked) [N-[(5-chloro-8-hydroxyquinolin-7-yl)(3,5-dimethoxyphenyl)methyl]-2-phenoxyacetamide] | 1090 nM | 
23 | O=C(COc1ccccc1)NC(c1cccc(F)c1)c1cc(Cl)c2cccnc2c1O (centres unmarked) [N-[(5-chloro-8-hydroxyquinolin-7-yl)(3-fluorophenyl)methyl]-2-phenoxyacetamide] | 624 nM | 
24 | COc1cccc(C(NC(=O)COc2ccccc2)c2cc(Cl)c3cccnc3c2O)c1 (centres unmarked) [N-[(5-chloro-8-hydroxyquinolin-7-yl)(3-methoxyphenyl)methyl]-2-phenoxyacetamide] | 1840 nM | 
25 | Cc1cc(OCC(=O)NC(c2cccc([N+](=O)[O-])c2)c2cc(Cl)c3cccnc3c2O)ccc1Cl (centres unmarked) [N-[(5-chloro-8-hydroxyquinolin-7-yl)(3-nitrophenyl)methyl]-2-(4-chloro-3-methylphenoxy)acetamide] |  | Agg-2 FRET Median PCT INHIB: 53%
26 | O=C(CCCc1ccccc1)NC(c1cccc([N+](=O)[O-])c1)c1cc(Cl)c2cccnc2c1O (centres unmarked) [N-[(5-chloro-8-hydroxyquinolin-7-yl)(3-nitrophenyl)methyl]-4-phenylbutanamide] | 1150 nM | 
27 | COc1cc(C(NC(=O)COc2ccccc2)c2cc(Cl)c3cccnc3c2O)ccc1O (centres unmarked) [N-[(5-chloro-8-hydroxyquinolin-7-yl)(4-hydroxy-3-methoxyphenyl)methyl]-2-phenoxyacetamide] | 7300 nM | 
28 | COc1ccc(C(NC(=O)COc2ccc(Cl)c(C)c2)c2cc(Cl)c3cccnc3c2O)cc1 (centres unmarked) [N-[(5-chloro-8-hydroxyquinolin-7-yl)(4-methoxyphenyl)methyl]-2-(4-chloro-3-methylphenoxy)acetamide] |  | Agg-2 FRET Median PCT INHIB: 57%
29 | COc1ccc(C(NC(=O)COc2cccnc2)c2cc(Cl)c3cccnc3c2O)cc1 (centres unmarked) [N-[(5-chloro-8-hydroxyquinolin-7-yl)(4-methoxyphenyl)methyl]-2-(pyridin-3-yloxy)acetamide] | 2980 nM | 
30 | COc1ccc(C(NC(=O)COc2ccccc2)c2cc(Cl)c3cccnc3c2O)cc1 (centres unmarked) [N-[(5-chloro-8-hydroxyquinolin-7-yl)(4-methoxyphenyl)methyl]-2-phenoxyacetamide] | 1120 nM and 1000 nM | 
31 | Cc1ccc(C(NC(=O)CCCc2ccccc2)c2cc(Cl)c3cccnc3c2O)cc1 (centres unmarked) [N-[(5-chloro-8-hydroxyquinolin-7-yl)(4-methylphenyl)methyl]-4-phenylbutanamide] |  | Agg-2 FRET Median PCT INHIB: 41%
32 | COc1cc(OC)cc(OCC(=O)NC(c2ccccc2)c2cc(Cl)c3cccnc3c2O)c1 (centres unmarked) [N-[(5-chloro-8-hydroxyquinolin-7-yl)(phenyl)methyl]-2-(3,5-dimethoxyphenoxy)acetamide] |  | Agg2 % inh (~600-1800 nM): 50% inh ~600-1800
33 | O=C(CCc1ccccc1)NC(c1ccccc1)c1cc(Cl)c2cccnc2c1O (centres unmarked) [N-[(5-chloro-8-hydroxyquinolin-7-yl)(phenyl)methyl]-3-phenylpropanamide] |  | Agg-2 FRET Median PCT INHIB: 23%; IC50 (read-out: Agg2 IC50): > 5000 nM
34 | O=C(COc1ccccc1)NC(c1cnc2ccccc2c1)c1cc(Cl)c2cccnc2c1O (centres unmarked) [N-[(5-chloro-8-hydroxyquinolin-7-yl)(quinolin-3-yl)methyl]-2-phenoxyacetamide] |  | IC50 (read-out: Agg2 IC50): 1300 nM
35 | COc1c(C(NC(=O)COc2ccccc2)c2ccccc2Cl)cc(Cl)c2cccnc12 (centres unmarked) [N-[(5-chloro-8-methoxyquinolin-7-yl)(2-chlorophenyl)methyl]-2-phenoxyacetamide] |  | Agg-2 FRET Median PCT INHIB: 32%
36 | COc1c(C(NC(=O)COc2ccccc2)c2ccccc2)cc(Cl)c2cccnc12 (centres unmarked) [N-[(5-chloro-8-methoxyquinolin-7-yl)(phenyl)methyl]-2-phenoxyacetamide] |  | Agg-2 FRET Median PCT INHIB: 50%
37 | CC(=O)NC(c1ccccc1)c1ccc2cccnc2c1O (centres unmarked) [N-[(8-hydroxyquinolin-7-yl)(phenyl)methyl]acetamide] |  | Agg-2 FRET Median PCT INHIB: 50%
